Reference: patent publication US20250066370A1, “BICYCLIC TRIAZINE DERIVATIVES FOR THE TREATMENT OF CANCER” (DEUTSCHES KREBSFORSCHUNGSZENTRUM, priority 2022, published 2025)

Assays:
CDK2/CyclinE = CDK2/CyclinE (Homo sapiens (Human), UniProt P24941); assay: CDK2/CycE kinase assay (TR-FRET); type: biochemical; conditions: 2 mM ATP (high ATP); median; read-out: CDK2/CyclinE, 2 mM ATP (high ATP), IC50 - [mol/l] (median)
Description: CDK2/CycE-inhibitory activity of compounds of the present invention was quantified employing the CDK2/CycE TR-FRET assay as described in the following paragraphs.
Recombinant fusion proteins of GST and human CDK2 and of GST and human CycE, expressed in insect cells (Sf9) and purified by Glutathion-Sepharose affinity chromatography, were purchased from ProQinase GmbH (Freiburg, Germany). As substrate for the kinase reaction biotinylated peptide biotin-Ttds-YISPLKSPYKISEG (C-terminus in amid form) was used which can be purchased e.g. form the company JERINI peptide technologies (Berlin, Germany).
For the assay 50 nanoL of a 100 fold concentrated solution of the test compound in DMSO was pipetted into a black low volume 384 well microtiter plate or a black 1536 well microtiter plate (both Greiner Bio-One, Frickenhausen, Germany), 2 microL of a solution of CDK2/CycE in aqueous assay buffer [50 millimol/L Tris/HCl PH 8.0, 10 millimol/L MgCl2, 1.0 millimol/L dithiothreitol, 0.1 millimol/L sodium ortho-vanadate, 0.01% (v/v) Nonidet-P40 (Sigma)] were added and the mixture was incubated for 15 min at 22° C. to allow pre-binding of the test compounds to the enzyme before the start of the kinase reaction. Then the kinase reaction was started by the addition of 3 microL of a solution of adenosine-tri-phosphate (ATP, 3.33 millimol/L=>final conc. in the 5 microL assay volume is 2 millimol/L) and substrate (1.25 micromol/L=>final conc. in the 5 microL assay volume is 0.75 micromol/L) in assay buffer and the resulting mixture was incubated for a reaction time of 25 min at 22° C. The concentration of CDK2/CycE was adjusted depending of the activity of the enzyme lot and was chosen appropriate to have the assay in the linear range, typical concentrations were in the range of 10 ng/ml. The reaction was stopped by the addition of 3 microL of a solution of TR-FRET detection reagents (0.333 micromol/L streptavidine-XL665 [Cisbio Bioassays, Codolet, France] and 1.67 nanomol/L anti-RB (pSer807/pSer811)-antibody from BD Pharmingen [#558389] and 2 nanomol/L LANCE EU-W1024 labeled anti-mouse IgG antibody [Perkin-Elmer, product no. AD0077, as an alternative a Terbium-cryptate-labeled anti-mouse IgG antibody from Cisbio Bioassays can be used]) in an aqueous EDTA-solution (167 millimol/L EDTA, 0.2% (w/v) bovine serum albumin in 100 millimol/L HEPES pH 7.5).
The resulting mixture was incubated 1 h at 22° C. to allow the formation of complex between the phosphorylated biotinylated peptide and the detection reagents. Subsequently the amount of phosphorylated substrate was evaluated by measurement of the resonance energy transfer from the Eu-chelate to the streptavidine-XL. Therefore, the fluorescence emissions at 620 nm and 665 nm after excitation at 350 nm was measured in a TR-FRET reader, e.g. a Pherastar (BMG Labtechnologies, Offenburg, Germany) or a Viewlux (Perkin-Elmer). The ratio of the emissions at 665 nm and at […] was taken as the measure for the amount of phosphorylated substrate. The data were normalised (enzyme reaction without inhibitor=0% inhibition, all other assay components but no enzyme=100% inhibition).

[1] = system: MDA-MB-231, human breast cancer cells; assay: Proliferation assay MDA-MB-231 (crystal violet); type: cell-based; conditions: 96 h, MDA-MB-231 parental cells, 4 days, median, read-out: Prolif-MDA MB-231, IC50 - [mol/l] (median)
Procedure: (§1) Human tumour cells were originally obtained from the American Type Culture Collection (ATCC), or from the Deutsche Sammlung von Mikroorganismen und Zellkulturen (DSMZ, German Collection of Microorganisms and Cell Cultures). Cultivated tumour cells (CAL-120, human breast adenocarcinoma cells, DSMZ ACC-459; MDA-MB-231, human breast cancer cells, ATCC HTB-26) were plated at a density of 4,000 cells/well in a 96-well multitier plate in 200 microL of their respective growth medium supplemented 10% fetal calf serum. After 24 hours, the cells of one plate (zero-point plate) were stained with crystal violet (see below), while the medium of the other plates was supplemented with the test substances in various concentrations (0 micromol/L, as well as in the range of 0.01-10 micromol/L; the final concentration of the solvent dimethyl sulfoxide was adjusted to 0.1%) using a Tecan HP D300 Digital Dispenser. The cells were incubated for 4 days in the presence of test substances. Cell proliferation was determined by staining the cells with crystal violet: the cells were fixed by adding 20 microL/measuring point of an 11% glutaric aldehyde solution for 15 minutes at room temperature. After three washing cycles of the fixed cells with water, the plates were dried at room temperature. The cells were stained by adding 100 microL/measuring point of a 0.1% crystal violet solution (pH 3.0). After three washing cycles of the stained cells with water, the plates were dried at room temperature. The dye was dissolved by adding 100 microL/measuring point of a 10% acetic acid solution. The extinction was determined by photometry at a wavelength of 595 nm. The change of cell number, in percent, was calculated by normalization of the measured values to the extinction values of the zero-point plate (=0%) and the extinction of the untreated (0 μM) cells (=100%). The IC50 values (inhibitory concentration at 50% of maximal effect) were determined by means of a 4 parameter fit.

[2] = system: CAL-120, human breast adenocarcinoma cells; assay: Proliferation assay CAL-120 (crystal violet); type: cell-based; conditions: 96 h, CAL-120 parental cells, 4 days, median, read-out: Prolif-CAL-120, IC50 - [mol/l] (median)
Procedure: as §1

CDK12 = CDK12 (Homo sapiens (Human), UniProt Q9NYV4); assay: CDK12 nuclear protein level: immunofluorescence/high content analysis in CAL-120 cells; type: cell-based; conditions: 24 h, nuclear CDK12 staining intensity, median, read-out: CDK12 degradation IF, DC50 - [mol/l] (median)
Procedure: In the context of the present invention, the term “DC50 CDK12” refers to the DC50 values obtained according to the assay described in this section (7) herein below, i.e. the DC50 values for the degradation of CDK12.
CAL-120 human breast cancer cells (DSMZ ACC 459) are seeded in 1536-well microtiter plates (800 cells per well) containing 50 nanoL of compounds in Dose-Response. Control wells received DMSO or Example 4. Plates are then incubated for 24 h at 37° C. in an humidified incubator and fixed with 4% PFA for 10 min. Then immunofluorescence (IF) against CDK12 (CellSignalling CDK12 Antibody #11973, rabbit, 1:100 dilution) is performed using standard IF protocols. Cells are then stained with Hoechst 33342 (Life Technologies, H-1399, 0.1 microg/ml) and imaged on an automated confocal microscopy system (e.g. Perkin Elmer Opera Phenix). Nuclear and cytoplasmic intensity as well as the nuclear/cytoplasmic intensity ratio is determined by automated image analysis using custom generated scripts (MetaXpress). Data is then transferred to Genedata Screener software, normalized to DMSO and control and DC50 values (degrading concentration to achieve 50% reduction of nuclear CDK12 staining intensity relative to controls) are reported.

Sequence of CDK12 (Q9NYV4 whole entry): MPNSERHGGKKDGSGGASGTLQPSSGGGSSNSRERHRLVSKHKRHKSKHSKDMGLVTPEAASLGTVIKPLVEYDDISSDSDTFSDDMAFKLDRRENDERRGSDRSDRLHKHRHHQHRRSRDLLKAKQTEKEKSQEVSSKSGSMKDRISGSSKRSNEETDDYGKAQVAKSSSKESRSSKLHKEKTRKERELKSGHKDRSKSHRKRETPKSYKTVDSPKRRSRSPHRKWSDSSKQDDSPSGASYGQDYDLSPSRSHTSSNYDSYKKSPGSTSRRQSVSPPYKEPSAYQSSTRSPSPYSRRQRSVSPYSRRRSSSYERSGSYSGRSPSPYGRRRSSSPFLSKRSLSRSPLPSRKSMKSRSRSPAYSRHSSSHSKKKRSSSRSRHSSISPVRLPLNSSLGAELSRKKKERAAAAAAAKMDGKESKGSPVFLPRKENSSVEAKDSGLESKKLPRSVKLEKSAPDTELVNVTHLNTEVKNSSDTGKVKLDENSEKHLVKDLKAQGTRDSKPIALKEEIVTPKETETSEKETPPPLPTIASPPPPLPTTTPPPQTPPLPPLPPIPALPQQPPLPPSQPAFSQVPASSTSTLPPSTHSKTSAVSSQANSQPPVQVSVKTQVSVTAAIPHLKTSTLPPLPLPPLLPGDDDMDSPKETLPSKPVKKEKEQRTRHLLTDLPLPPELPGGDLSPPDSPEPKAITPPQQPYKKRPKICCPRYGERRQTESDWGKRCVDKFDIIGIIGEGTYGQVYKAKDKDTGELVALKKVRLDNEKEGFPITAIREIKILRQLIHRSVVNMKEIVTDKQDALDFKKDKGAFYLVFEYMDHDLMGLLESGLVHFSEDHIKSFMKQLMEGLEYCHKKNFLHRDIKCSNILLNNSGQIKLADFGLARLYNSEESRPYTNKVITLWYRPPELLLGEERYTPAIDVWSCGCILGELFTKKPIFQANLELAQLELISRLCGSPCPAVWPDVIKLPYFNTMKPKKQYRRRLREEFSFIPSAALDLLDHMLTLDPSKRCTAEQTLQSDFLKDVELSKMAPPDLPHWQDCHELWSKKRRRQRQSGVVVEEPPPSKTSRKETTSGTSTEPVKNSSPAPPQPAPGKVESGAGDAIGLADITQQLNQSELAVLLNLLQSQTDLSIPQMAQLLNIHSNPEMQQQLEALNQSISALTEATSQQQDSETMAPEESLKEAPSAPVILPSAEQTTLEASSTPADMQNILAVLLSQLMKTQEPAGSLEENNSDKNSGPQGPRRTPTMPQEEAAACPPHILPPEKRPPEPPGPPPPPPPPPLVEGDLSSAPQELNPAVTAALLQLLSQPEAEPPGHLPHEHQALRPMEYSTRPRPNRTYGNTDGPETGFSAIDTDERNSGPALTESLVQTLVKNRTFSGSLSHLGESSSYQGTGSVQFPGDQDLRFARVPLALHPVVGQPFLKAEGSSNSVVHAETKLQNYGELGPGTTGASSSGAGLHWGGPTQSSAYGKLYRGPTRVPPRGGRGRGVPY
Sequence of CDK12 (O75909 whole entry partner): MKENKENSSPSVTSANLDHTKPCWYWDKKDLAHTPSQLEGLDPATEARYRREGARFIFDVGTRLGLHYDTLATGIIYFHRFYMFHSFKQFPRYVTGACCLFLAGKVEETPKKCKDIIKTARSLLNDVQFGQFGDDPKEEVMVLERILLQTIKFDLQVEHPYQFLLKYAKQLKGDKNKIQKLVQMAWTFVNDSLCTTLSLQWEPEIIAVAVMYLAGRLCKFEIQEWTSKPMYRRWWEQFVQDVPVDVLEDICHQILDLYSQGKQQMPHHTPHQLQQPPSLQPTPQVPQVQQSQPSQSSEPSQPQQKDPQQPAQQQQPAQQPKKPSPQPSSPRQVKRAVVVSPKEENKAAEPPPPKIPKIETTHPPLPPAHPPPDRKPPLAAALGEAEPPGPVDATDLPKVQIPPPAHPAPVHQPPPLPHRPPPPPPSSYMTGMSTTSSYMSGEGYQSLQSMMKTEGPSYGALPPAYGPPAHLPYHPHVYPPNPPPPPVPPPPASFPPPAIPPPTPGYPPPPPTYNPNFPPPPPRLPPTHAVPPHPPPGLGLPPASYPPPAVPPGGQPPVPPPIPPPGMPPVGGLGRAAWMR

| Compound | IC50 (CDK2/CyclinE) | DC50 (CDK12) | IC50 [1] | IC50 [2] |
| --- | --- | --- | --- | --- |
| FC(F)(F)c1ccc(-c2cnc(CNc3nc(N4CCOCC4)nn4c(C(F)(F)F)cnc34)[nH]2)cc1 [Example 7, 2-(morpholin-4-yl)-7-(trifluoromethyl)-N-({5-[4-(trifluoromethyl)phenyl]-1H-imidazol-2-yl}methyl)imidazo[2,1-f][1,2,4]triazin-4-amine] | > 20000 nM | 671 nM | 90.5 nM | 103 nM |
| FC(F)(F)Oc1ccc(-c2cnc(CNc3nc(N4CCOCC4)nn4c(C(F)(F)F)cnc34)[nH]2)cc1 [Example 8, 2-(morpholin-4-yl)-N-({5-[4-(trifluoromethoxy)phenyl]-1H-imidazol-2-yl}methyl)-7-(trifluoromethyl)imidazo[2,1-f][1,2,4]triazin-4-amine] | > 20000 nM | 893 nM | 114 nM | 90.7 nM |
| FC(F)(F)c1ccc(-c2cnc(CNc3nc(N4CCOCC4)nn4c(C(F)(F)F)cnc34)[nH]2)cn1 [Example 12, 2-(morpholin-4-yl)-7-(trifluoromethyl)-N-({5-[6-(trifluoromethyl)pyridin-3-yl]-1H-imidazol-2-yl}methyl)imidazo[2,1-f][1,2,4]triazin-4-amine] | > 20000 nM | > 1000 nM | 22.5 nM | 14.8 nM |
| FC(F)(F)Oc1ccc(-c2cnc(CNc3nc(N4CCOCC4)nc4c(Br)cnn34)[nH]2)cc1 [Example 4, 8-bromo-2-(morpholin-4-yl)-N-({5-[4-(trifluoromethoxy)phenyl]-1H-imidazol-2-yl}methyl)pyrazolo[1,5-a][1,3,5]triazin-4-amine] | 10400 nM | > 1000 nM | 123 nM | 103 nM |
| FC(F)(F)Oc1ccc(-c2nnc(CNc3nc(N4CCOCC4)nn4c(C(F)(F)F)cnc34)[nH]2)cc1 [Example 14, 2-(morpholin-4-yl)-N-({5-[4-(trifluoromethoxy)phenyl]-4H-1,2,4-triazol-3-yl}methyl)-7-(trifluoromethyl)imidazo[2,1-f][1,2,4]triazin-4-amine] | > 20000 nM | 665 nM | 319 nM | 248 nM |
| FC(F)(F)c1ccc(-c2nnc(CNc3nc(N4CCOCC4)nn4c(C(F)(F)F)cnc34)[nH]2)cc1 [Example 11, 2-(morpholin-4-yl)-7-(trifluoromethyl)-N-({5-[4-(trifluoromethyl)phenyl]-4H-1,2,4-triazol-3-yl}methyl)imidazo[2,1-f][1,2,4]triazin-4-amine] | > 20000 nM | 920 nM | 434 nM | 419 nM |

More lines, main results first:

| IC50 (CDK2/CyclinE) | DC50 (CDK12) | Compound | IC50 [1] | IC50 [2] |
| --- | --- | --- | --- | --- |
| 3120 nM | > 1000 nM | Cc1ccc(-c2nnc(CNc3nc(N4CCOCC4)nc4c(C(F)(F)F)cnn34)[nH]2)cn1 [Example 22, N-{[5-(6-methylpyridin-3-yl)-4H-1,2,4-triazol-3-yl]methyl}-2-(morpholin-4-yl)-8-(trifluoromethyl)pyrazolo[1,5-a][1,3,5]triazin-4-amine] | 286 nM | 333 nM |
| 3120 nM | > 1000 nM | COc1ccc(-c2nnc(CNc3nc(N4CCOCC4)nc4c(C(F)(F)F)cnn34)[nH]2)cn1 [Example 15, N-{[5-(6-methoxypyridin-3-yl)-4H-1,2,4-triazol-3-yl]methyl}-2-(morpholin-4-yl)-8-(trifluoromethyl)pyrazolo[1,5-a][1,3,5]triazin-4-amine] | 259 nM | 355 nM |
| 6390 nM | > 1000 nM | COc1ccc(-c2cnc(CNc3nc(N4CCOCC4)nc4c(C(F)(F)F)cnn34)[nH]2)cn1 [Example 21, N-{[5-(6-methoxypyridin-3-yl)-1H-imidazol-2-yl]methyl}-2-(morpholin-4-yl)-8-(trifluoromethyl)pyrazolo[1,5-a][1,3,5]triazin-4-amine] | 98.3 nM | 99 nM |
| 2860 nM | > 1000 nM | Cc1ccc(-c2nnc(CNc3nc(N4CCOCC4)nn4c(C(F)(F)F)cnc34)[nH]2)cn1 [Example 23, N-{[5-(6-methylpyridin-3-yl)-4H-1,2,4-triazol-3-yl]methyl}-2-(morpholin-4-yl)-7-(trifluoromethyl)imidazo[2,1-f][1,2,4]triazin-4-amine] | 75.8 nM | 99.3 nM |
| > 5710 nM | > 1000 nM | FC(F)(F)c1ccc(-c2nnc(CNc3nc(N4CCOCC4)nn4c(C(F)(F)F)cnc34)[nH]2)cn1 [Example 20, 2-(morpholin-4-yl)-7-(trifluoromethyl)-N-({5-[6-(trifluoromethyl)pyridin-3-yl]-4H-1,2,4-triazol-3-yl}methyl)imidazo[2,1-f][1,2,4]triazin-4-amine] | 52.9 nM | 83.5 nM |
